Consider two molecules from PMC11561238, “Discovery and binding mode of small molecule inhibitors of the apo form of human TDO2” (Scientific Reports, 2024).

Values joined by “and” are separate entries in the source; they are usually repeats but may differ in a detail not shown here. Equal values may be shown once. Read-outs that look alike come from different tables or passages of the source.

One assay concerns the target T1, IDO1 (Homo sapiens, UniProt P14902).
T1 construct: SKOV3 cells treated with IFNγ to induce IDO expression; endogenous in cells; host or cells: SKOV3 cells (NCI No. 0503405), IFNγ-stimulated
Put plainly: IDO1 cellular activity assay (IFNγ-stimulated SKOV3 cells). Format: cell-based. The following applies: IFNγ 50 ng/ml, 24 h. As to the method:
A cellular assay similar to the TDO2 assay was used to measure IDO1 inhibition in SKOV3 cells.
SKOV3 cells (source: National Cancer Institute (NCI), No. 0503405) which upregulate IDO1 after stimulation with IFNγ were used to measure compounds for IDO1 inhibitory activity. SKOV3 cells were routinely maintained in RPMI 90% (v/v), FCS 10% (v/v), Penicilin/streptomycin 1% (v/v). SKOV3 cells were seeded in 384 well plates at a density of 8000 cells in 45 µl per well or 4000 cells in 45 µl per well, respectively. Plates were incubated at 37 °C / 5% CO2 for 24 h. On the next day, 10 µl compound in serial dilutions (tested concentration range 10 µM-0.5 nM) and 200 µM L-tryptophan were added as well as IFNγ at a final concentration of 50 ng/ml. After 24 h of incubation at 37 °C / 5% CO2, 3 µl of the supernatant per well was transferred to 25 µl H2O per well in a 384 deep well plate and 25 µl of the supernatant per well was transferred to waste. The SKOV3 cell plates with 25 µl supernatant per well remaining were used to measure viability (see below). […] NFK and kynurenine (KYN) were quantified by LCMS, normalized to the internal standard L-tryptophan-(indole-d5) and the sum was calculated. […] For each compound concentration the percentage of activity compared to 0% and 100% effect was calculated as average ± STDEV (each concentration measured in duplicate). […]

For the next assay, the target named is T2, apo-TDO2 (Homo sapiens, UniProt P48775).
T2 construct: a longer construct (His6-aa19-406, with aa406 corresponding to the wild type C-terminal residue), which was used for DSF and other experiments; made in house; host or cells: E. coli RP523 (hemB mutant, unable to synthesize heme)
T2 sequence (P48775 19-406): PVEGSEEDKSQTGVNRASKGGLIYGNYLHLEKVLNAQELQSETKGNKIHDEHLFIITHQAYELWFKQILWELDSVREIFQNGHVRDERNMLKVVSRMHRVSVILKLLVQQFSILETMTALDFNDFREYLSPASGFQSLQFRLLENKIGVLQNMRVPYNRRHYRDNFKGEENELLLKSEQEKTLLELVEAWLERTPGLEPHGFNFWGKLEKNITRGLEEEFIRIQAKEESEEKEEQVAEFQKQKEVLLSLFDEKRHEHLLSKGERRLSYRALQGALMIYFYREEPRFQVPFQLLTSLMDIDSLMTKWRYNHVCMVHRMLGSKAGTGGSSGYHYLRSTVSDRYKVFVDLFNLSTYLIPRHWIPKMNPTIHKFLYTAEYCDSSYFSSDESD
Nature of the assay: Differential scanning fluorimetry (thermal shift) of apo-TDO2. Format: binding. The following applies: for Δ Tm Boltzmann / Δ Tm Derivative: 25 µM; for Δ Tm Boltzmann / Δ Tm Derivative / Tm Boltzmann / Tm Derivative: in °C. On the procedure:
[…] S5 online).
Protein thermal stability and small molecule ligand binding of TDO2 in vitro was studied using differential scanning fluorimetry (DSF, also known as thermal shift assay)[34]. Assay ingredients and ligands were combined to obtain a mixture composed of 10 µM TDO2 and 10x SYPRO Orange, in assay buffer (50 mM HEPES-NaOH pH 8.0, 200 mM NaCl, 2 mM TCEP, 10% glycerol) and 2% final DMSO concentration. Small molecule chemical ligands were taken from DMSO stock solution (100 mM, 10 mM) and diluted in DMSO transferred to wells of PCR Plates (Micro Amp Fast 96-well Reaction Plates, Applied Biosystems) to ensure matching final DMSO concentrations.
DSF was carried out with a StepOnePlus™ real time PCR system. Thermal denaturation of TDO2 was monitored with a ramp rate of 1 K/min. Protein melting curves were evaluated using the Thermal Shift Software v 1.3. (Thermo Fisher Scientific) to derive differences in midpoint melting-temperatures (derivative model). The thermal shift (DTm) is documented as the difference between the reference midpoint melting temperature of proteins (containing 500 µM AMT) in the presence of the ligand vehicle (DMSO) and in the presence of ligand.
Supplementary Table S2. Differential scanning fluorimetry data corresponding to supplementary figure S4. The experiments were carried out in quadruplicate, or in triplicate where single outlier values (highlighted in bold italics) were excluded from calculation of the melting curves. AMT was added at a concentration of 500 µM; […] and […] were added at a concentration of 25 µM.

The mark [1] stands for this setting: 25 µM compound with 500 µM AMT, compared to 59.2 °C in the absence of inhibitor, read-out: increase of the melting temperature of apo-TDO2.
[2] abbreviates: apo-TDO2 + 25 µM compound, no AMT, shift vs apo, single replicates.
The mark [3] stands for this setting: apo-TDO2 + 25 µM compound, no AMT, shift vs apo, single replicates, read-out: Δ Tm Boltzmann.
The mark [4] stands for this setting: apo-TDO2 + 25 µM compound, no AMT, shift vs apo, single replicates, read-out: Δ Tm Derivative.
The mark [5] stands for this setting: apo-TDO2 + 25 µM compound, no AMT, single replicates.

T1 sequence (P14902 whole entry): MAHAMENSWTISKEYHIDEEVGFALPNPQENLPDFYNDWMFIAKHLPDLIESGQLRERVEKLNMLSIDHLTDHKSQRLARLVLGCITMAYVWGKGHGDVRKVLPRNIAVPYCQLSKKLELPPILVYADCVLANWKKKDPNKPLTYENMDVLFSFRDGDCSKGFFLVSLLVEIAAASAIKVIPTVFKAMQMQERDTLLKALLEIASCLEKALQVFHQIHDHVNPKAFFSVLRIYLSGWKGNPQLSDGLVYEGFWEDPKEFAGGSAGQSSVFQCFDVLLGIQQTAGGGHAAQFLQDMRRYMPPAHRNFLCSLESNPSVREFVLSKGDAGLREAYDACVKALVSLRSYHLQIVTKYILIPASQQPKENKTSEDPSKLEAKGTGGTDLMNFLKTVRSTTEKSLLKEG

Consider `CCCc1ccccc1NC(=O)N(C(C)c1ccccc1)C1CCCn2c1nc(OC)c(C(=O)OCC)c2=O` (stereo not shown) [Cpd-1, ethyl 9-(3-(2-propylphenyl)-1-(1-phenylethyl)ureido)-2-methoxy-4-oxo-6,7,8,9-tetrahydro-4H-pyrido[1,2-a]pyrimidine-3-carboxylate], for which the IC50 against IDO1 came to 5.7 µM. Besides, the ΔTm at 25 µM was found to be 11.2 °C on apo-TDO2 (setting [1]), 10.3 °C at apo-TDO2 (setting [3]) and 6.57 °C on apo-TDO2 (setting [4]). In addition, the “Δ Tm Boltzmann” value at apo-TDO2 (setting [2]) is 11.41 and 11.37 and 11.43. In addition, at apo-TDO2 (setting [2]), the “Δ Tm Derivative” value is 7.28 and 6.95 and 6.97. The “Tm Boltzmann” value on apo-TDO2 (setting [5]) was 59.1 and 60.21 and 60.17 and 60.23. Moreover, the “Tm Derivative” value at apo-TDO2 (setting [5]) is 55.45 and 56.16 and 55.84 and 55.85.

Molecule `CCOC(=O)c1c(OC)nc2n(c1=O)CCCC2N(C(=O)Nc1ccccc1C(C)C)[C@@H](C)c1ccccc1` (mixture of isomers) [Cpd-2, ethyl 9-(3-(2-isopropylphenyl)-1-((S)-1-phenylethyl)ureido)-2-methoxy-4-oxo-6,7,8,9-tetrahydro-4H-pyrido[1,2-a]pyrimidine-3-carboxylate] registered an IC50 at IDO1 greater than 10 µM. In addition, the figures for the ΔTm at 25 µM on apo-TDO2 (setting [1]), on apo-TDO2 (setting [3]) and on apo-TDO2 (setting [4]) were 14.5 °C, 21.4 °C and 21.5 °C, respectively. On apo-TDO2 (setting [2]), the “Δ Tm Boltzmann” value was 21.65 and 21.58 and 21.17. Also, at apo-TDO2 (setting [2]), the “Δ Tm Derivative” value is 21.51 and 21.53 and 21.2. Further, the “Tm Boltzmann” value on apo-TDO2 (setting [5]) amounted to 70.45. The “Tm Derivative” value at apo-TDO2 (setting [5]) is 70.37 and 70.39 and 70.41 and 70.08.
